These compounds were tested against hcGAS (Homo sapiens, UniProt Q8N884) (assay: hcGAS LCMS assay (direct measurement of cGAMP production)). Details: 0.5 nM hcGAS, 100 μM ATP, 100 μM GTP, 25 nM dsDNA, 4 h incubation.
Assay type: biochemical
Protocol: cGAS catalyzes the cyclization of ATP and GTP to produce cGAMP, which is the activating ligand of STING. Human cGAS (hcGAS) inhibition can thus be quantified by measuring how much cGAMP is formed either indirectly, by monitoring ATP-depletion as in the hcGAS Kinase-Glo assay (as described below), or directly, such as using the hcGAS LCMS assay (as described below).
Compounds were tested for their h-cGAS inhibition activity using direct measurement of cGAMP production by LC/MS. Briefly, compounds were incubated with enzyme and substrates for 4 hours (see Table C), before the reaction was stopped with 3 volumes of 70/30 Acetonitrile/H2O mix containing 0.15 mM cGAMP-^13C10^5N5 as internal standard and mixed for […]. After centrifugation (3700 rpm, 10 min, 10° Celsius), […] of each reaction was collected and mixed to equal volume of Acetonitrile. Samples were then analyzed on Qexective (Column: XBridge BEH Amide Column, 130 Å, 3.5 μm, 3 mm×50 mm, Mobile phase A: 10 mM Ammonium acetate in 95/5% H2O/Acetonitrile (0.5% DMSO), Mobile phase B: Acetonitrile (0.5% DMSO).
The results of the assay, expressed as IC50 values, are reported in Table D with the following designations: A represents an IC50 value<0.005 μM; B represents an IC50 value≥0.005 μM and <0.02 μM, C represents an IC50 value≥0.02 μM and <0.06 μM; D represents an IC50 value≥0.06 and <0.2 μM; E represents an IC50 value≥0.2.

Sequence of hcGAS (Q8N884 whole entry): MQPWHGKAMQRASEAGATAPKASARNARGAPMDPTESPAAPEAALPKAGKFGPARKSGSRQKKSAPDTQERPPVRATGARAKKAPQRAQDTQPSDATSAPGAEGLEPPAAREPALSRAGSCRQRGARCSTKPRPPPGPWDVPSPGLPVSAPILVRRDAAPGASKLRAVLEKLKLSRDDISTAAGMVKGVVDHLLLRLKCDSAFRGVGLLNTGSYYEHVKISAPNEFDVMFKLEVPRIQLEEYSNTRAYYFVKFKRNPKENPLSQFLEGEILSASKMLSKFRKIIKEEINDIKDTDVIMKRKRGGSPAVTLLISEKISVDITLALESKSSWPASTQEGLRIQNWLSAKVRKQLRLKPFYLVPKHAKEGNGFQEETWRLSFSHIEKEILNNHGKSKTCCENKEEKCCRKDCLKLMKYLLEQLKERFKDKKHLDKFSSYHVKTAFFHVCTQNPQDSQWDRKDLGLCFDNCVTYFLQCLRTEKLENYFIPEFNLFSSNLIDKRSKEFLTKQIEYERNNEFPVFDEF

IC50 [nM] | Compound
60 to 200 | COc1c(N(CCO)CCO)cc(C(=O)Nc2nnc(-n3nccc3C)s2)oc1=O (single isomer, unassigned) [Compound 158, 4-(bis(2-hydroxyethyl)amino)-3-methoxy-N-(5-(5-methyl-1H-pyrazol-1-yl)-1,3,4-thiadiazol-2-yl)-2-oxo-2H-pyran-6-carboxamide]
≥ 200 | 4-(((1S,2R)-2-(hydroxymethyl)cyclopentyl)amino)-3-methoxy-N-(5-(5-methyl-1H-pyrazol-1-yl)-1,3,4-thiadiazol-2-yl)-2-oxo-2H-pyran-6-carboxamide [Rac-55]
60 to 200 | COc1c(N[C@@H](C)[C@H](C)OC)cc(C(=O)Nc2nnc(-n3nccc3C)s2)oc1=O [Compound 163]
5 to 20 | COCCOc1c(N[C@H]2CCC[C@H]2O)cc(C(=O)Nc2nnc(-c3c(Cl)ccn3C)s2)oc1=O [Compound 85, N-(5-(3-chloro-1-methyl-1H-pyrrol-2-yl)-1,3,4-thiadiazol-2-yl)-4-(((1S,2R)-2-hydroxycyclopentyl)amino)-3-(2-methoxyethoxy)-2-oxo-2H-pyran-6-carboxamide]
20 to 60 | COCC(COC)Nc1cc(C(=O)Nc2nnc(-n3nccc3CO)s2)oc(=O)c1OC [Compound 143, 4-((1,3-dimethoxypropan-2-yl)amino)-N-(5-(5-(hydroxymethyl)-1H-pyrazol-1-yl)-1,3,4-thiadiazol-2-yl)-3-methoxy-2-oxo-2H-pyran-6-carboxamide]
< 5 | COc1c(N[C@H](C)[C@@H](C)OC)cc(C(=O)Nc2nnc(-n3nccc3C)s2)oc1=O [Compound 161, 5-methoxy-4-{[(2R,3R)-3-methoxybutan-2-yl]amino}-N-[5-(5-methylpyrazol-1-yl)-1,3,4-thiadiazol-2-yl]-6-oxopyran-2-carboxamide]
20 to 60 | COc1c(NCCOCC(F)F)cc(C(=O)Nc2nnc(-n3nccc3C)s2)oc1=O [Compound 17, 4-((2-(2,2-difluoroethoxy)ethyl)amino)-3-methoxy-N-(5-(5-methyl-1H-pyrazol-1-yl)-1,3,4-thiadiazol-2-yl)-2-oxo-2H-pyran-6-carboxamide]
5 to 20 | COc1c(N[C@H]2CCC[C@H]2OCC(F)F)cc(C(=O)Nc2nnc(-n3nccc3C)s2)oc1=O [Compound 206, 4-(((1S,2R)-2-(2,2-difluoroethoxy)cyclopentyl)amino)-3-methoxy-N-(5-(5-methyl-1H-pyrazol-1-yl)-1,3,4-thiadiazol-2-yl)-2-oxo-2H-pyran-6-carboxamide]
5 to 20 | COc1c(N[C@H]2COC[C@@H]2OC)cc(C(=O)Nc2nnc(-n3nccc3C)s2)oc1=O [Compound 13, 3-methoxy-4-(((3S,4R)-4-methoxytetrahydrofuran-3-yl)amino)-N-(5-(5-methyl-1H-pyrazol-1-yl)-1,3,4-thiadiazol-2-yl)-2-oxo-2H-pyran-6-carboxamide]
5 to 20 | COC[C@]1(Nc2cc(C(=O)Nc3nnc(-n4nccc4C)s3)oc(=O)c2OC)CCOC1 (single isomer, unassigned) [Compound 101*]
20 to 60 | CC[C@H](COC)Nc1cc(C(=O)Nc2nnc(-n3nccc3C)s2)oc(=O)c1OC (single isomer, unassigned) [191*]
< 5 | COC[C@@H](Nc1cc(C(=O)Nc2nnc(-n3nccc3C)s2)oc(=O)c1OC)C1CC1 (single isomer, unassigned) [Compound 22*]
5 to 20 | COc1c(NCCOC(F)F)cc(C(=O)Nc2nnc(-n3nccc3C)s2)oc1=O [Compound 208, 4-((2-(difluoromethoxy)ethyl)amino)-3-methoxy-N-(5-(5-methyl-1H-pyrazol-1-yl)-1,3,4-thiadiazol-2-yl)-2-oxo-2H-pyran-6-carboxamide]
20 to 60 | COCCNc1cc(C(=O)Nc2nnc(-c3ccsc3Cl)s2)oc(=O)c1OC [Compound 135, N-(5-(2-chlorothiophen-3-yl)-1,3,4-thiadiazol-2-yl)-3-methoxy-4-((2-methoxyethyl)amino)-2-oxo-2H-pyran-6-carboxamide]
< 5 | COc1c(N2CCCCC2=O)cc(C(=O)Nc2nnc(-n3nccc3C)s2)oc1=O [Compound 96]
5 to 20 | COc1c(NCC2(OC)CC2)cc(C(=O)Nc2nnc(-n3nccc3C)s2)oc1=O [Compound 190]

IC50 [nM] | Compound
< 5 | COc1c(N[C@H]2CCC[C@H]2O)cc(C(=O)Nc2nnc(-c3c(Cl)ccn3C)s2)oc1=O [Compound 83, N-(5-(3-chloro-1-methyl-1H-pyrrol-2-yl)-1,3,4-thiadiazol-2-yl)-4-(((1S,2R)-2-hydroxycyclopentyl)amino)-3-methoxy-2-oxo-2H-pyran-6-carboxamide]
20 to 60 | COc1c(NC[C@@H]2CCO2)cc(C(=O)Nc2nnc(-n3nccc3C)s2)oc1=O [Compound 93, (S)-3-methoxy-N-(5-(5-methyl-1H-pyrazol-1-yl)-1,3,4-thiadiazol-2-yl)-4-((oxetan-2-ylmethyl)amino)-2-oxo-2H-pyran-6-carboxamide]
5 to 20 | COC[C@@H](Nc1cc(C(=O)Nc2nnc(-n3nccc3C)s2)oc(=O)c1OC)C(C)C [Compound 77, (S)-3-methoxy-4-((1-methoxy-3-methylbutan-2-yl)amino)-N-(5-(5-methyl-1H-pyrazol-1-yl)-1,3,4-thiadiazol-2-yl)-2-oxo-2H-pyran-6-carboxamide]
5 to 20 | COc1c(N[C@H]2CCC[C@H]2OC(F)F)cc(C(=O)Nc2nnc(-n3nccc3C)s2)oc1=O [Compound 212, 4-(((1S,2R)-2-(difluoromethoxy)cyclopentyl)amino)-3-methoxy-N-(5-(5-methyl-1H-pyrazol-1-yl)-1,3,4-thiadiazol-2-yl)-2-oxo-2H-pyran-6-carboxamide]
5 to 20 | COC[C@H]1[C@H](OC)CCN1c1cc(C(=O)Nc2nnc(-n3nccc3C)s2)oc(=O)c1OC [Compound 211, 3-methoxy-4-((2S,3R)-3-methoxy-2-(methoxymethyl)pyrrolidin-1-yl)-N-(5-(5-methyl-1H-pyrazol-1-yl)-1,3,4-thiadiazol-2-yl)-2-oxo-2H-pyran-6-carboxamide]
5 to 20 | COC[C@H]1CCN1c1cc(C(=O)Nc2nnc(-n3nccc3C)s2)oc(=O)c1OC [Compound 194, (R)-3-methoxy-4-(2-(methoxymethyl)azetidin-1-yl)-N-(5-(5-methyl-1H-pyrazol-1-yl)-1,3,4-thiadiazol-2-yl)-2-oxo-2H-pyran-6-carboxamide]
5 to 20 | COc1c(N[C@@H]2CCC[C@@H]2OC)cc(C(=O)Nc2nnc(-c3c(Cl)ccn3C)s2)oc1=O (single isomer, unassigned) [48*]
5 to 20 | COc1c(N[C@@H]2CCCC[C@@H]2OC)cc(C(=O)Nc2nnc(-n3nccc3C)s2)oc1=O [Compound 52, 3-methoxy-4-(((1R,2S)-2-methoxycyclohexyl)amino)-N-(5-(5-methyl-1H-pyrazol-1-yl)-1,3,4-thiadiazol-2-yl)-2-oxo-2H-pyran-6-carboxamide]
5 to 20 | COCC1(Nc2cc(C(=O)Nc3nnc(-n4nccc4C)s3)oc(=O)c2OC)CCCC1 [Compound 152, 3-methoxy-4-((1-(methoxymethyl)cyclopentyl)amino)-N-(5-(5-methyl-1H-pyrazol-1-yl)-1,3,4-thiadiazol-2-yl)-2-oxo-2H-pyran-6-carboxamide]
< 5 | COc1c(N[C@H](C)[C@H](C)OC)cc(C(=O)Nc2nnc(-n3nccc3C)s2)oc1=O [Compound 166, 3-methoxy-4-(((2R,3S)-3-methoxybutan-2-yl)amino)-N-(5-(5-methyl-1H-pyrazol-1-yl)-1,3,4-thiadiazol-2-yl)-2-oxo-2H-pyran-6-carboxamide]
5 to 20 | COc1c(N[C@H]2COC[C@H]2OC)cc(C(=O)Nc2nnc(-n3nccc3C)s2)oc1=O [Compound 160, 3-Methoxy-4-(((3S,4S)-4-methoxytetrahydrofuran-3-yl)amino)-N-(5-(5-methyl-1H-pyrazol-1-yl)-1,3,4-thiadiazol-2-yl)-2-oxo-2H-pyran-6-carboxamide]
60 to 200 | COC[C@@H]1CCC[C@@H]1Nc1cc(C(=O)Nc2nnc(-n3nccc3C)s2)oc(=O)c1OC (single isomer, unassigned) [Compound 79*]
5 to 20 | COc1c(N[C@@H]2c3ccccc3C[C@@H]2OC)cc(C(=O)Nc2nnc(-n3nccc3C)s2)oc1=O (racemic) [Rac-164, 3-methoxy-4-(((1R,2S)-2-methoxy-2,3-dihydro-1H-inden-1-yl)amino)-N-(5-(5-methyl-1H-pyrazol-1-yl)-1,3,4-thiadiazol-2-yl)-2-oxo-2H-pyran-6-carboxamide]
≥ 200 | COCCN(CCO)c1cc(C(=O)Nc2nnc(-n3nccc3C)s2)oc(=O)c1OC (single isomer, unassigned) [Compound 157, 4-((2-hydroxyethyl)(2-methoxyethyl)amino)-3-methoxy-N-(5-(5-methyl-1H-pyrazol-1-yl)-1,3,4-thiadiazol-2-yl)-2-oxo-2H-pyran-6-carboxamide]
60 to 200 | COc1c(NCCOC2CC2)cc(C(=O)Nc2nnc(-n3nccc3C)s2)oc1=O [Compound 168, 4-((2-cyclopropoxyethyl)amino)-3-methoxy-N-(5-(5-methyl-1H-pyrazol-1-yl)-1,3,4-thiadiazol-2-yl)-2-oxo-2H-pyran-6-carboxamide]
